Assay results from US6740680B1, “Pharmaceutical compositions to tetrac and methods of use thereof” (Becton Pharma, Inc., priority 1999, dated 2004).
Like-named read-outs stand apart in the source and are kept apart here.

Assays:
[1] = Serum T3, T4, Triac and Tetrac levels in infused rats; assay type: in vivo; details: male, SIVZ, rat, intraperitoneal, mean ± SEM, read-out: Serum Tetrac
Protocol: (§1) Seventy-nine male SIVZ rats were purchased from the breeder (Institut für Labortierkunde des Universität Zürich, Zürich, Switzerland). They were rendered hypothyroid by a single injection of [^131I]Na (100 μCi/rat) and before and throughout the experiment 0.02% 2-mercapto-1-methylimidazol (MMI) was added to drinking water. In order to have an euthyroid control group of similar weight and identical age, 10 rats received only MMI in the drinking water and 2 weeks before implanting the minipumps, MMI was withdrawn. Osmotic minipumps (secretion rate 0.25 μl/hour, duration 14 days) were implanted intraperitoneally (i.p.) 2 months after the injection of [^131I]Na. The minipumps were filled with T4 or Tetrac dissolved in 0.05 N NaOH, 2% BSA and 100,000 cpm [^125I]T4 or [^125I]Tetrac as control of their secretion rates. The infusion lasted 13 days. 0, 1.5, 4.5, 13.5 and 40.5 nmol Tetrac/day/100 g or 0.5, 1.5, 4.5 and 13.5 nmol T4/day/100 g bodyweight (BW) (n=4/dose) were infused. An euthyroid control group was included. The animals were weighed every 2 days. Rats were sacrificed by decapitation and blood was collected and stored at […] until use. Tissues (liver, heart, brown adipose tissue, cerebral cortex and pituitary) were removed rapidly, frozen in liquid nitrogen and stored at […] until use.
Hornone assays. Total serum T4, T3, Tetrac, Triac and TSH levels (intra-assay coefficient of variation 7 to 10%, inter-assay coefficient of variation 12 to 15%) were measured using the method of Burger, A., Sakoloff, C., Staeheli, V., Vallotton, M. D., and Ingbar, S. H. Acta. Endocrinol. (Copenh.) 80: 58-69 (1975). Serum TSH measurements were performed with reagents kindly provided by the National Pituitary Program, NIAMDD, NIH (Bethesda, USA). The detection limits were 0.80 ng TSH/ml; 9.5 pmol T4/ml; 0.16 pmol T3/ml; 10 pmol Tetrac/ml and 0.52 pmol Triac/ml.

α-MHC mRNA = assay: Northern blot, α-MHC mRNA in heart; assay type: in vivo, rat; details: infused rats, adjusted group mean at the mean Ln (TSH) concentration
Protocol: as §1
Total RNA extraction and Northern Blot hybridization Total RNA was extracted with the method of Chomczynski and Sacchi (Chomczynski, P. and Sacchi, N. Anal. Biochem. (1987) 162: 156-159). […]
The amount of labeled mRNA was quantified by scanning laser densitometry (Phosphorimager, Molecular Dynamics; Sunnyvale, USA). Variations in RNA loading and membrane transfer were corrected by densitometric quantification of a negative photograph of 28S and 18S ribosomal RNA bands from ethidium bromide stained RNA gels. […]

Cynomologus monkeys = tested on: Cynomologus monkeys
Protocol: Preparation of Tetrac for injection. Tetrac from Rhône-Poulenc and Henning Laboratory were compared. Tetrac powder was dissolved in sterile 0.1 N NaOH at 2 mg/ml. This solution was made before the beginning of each treatment period and stored at 4° C. in polypropylene tubes, protected from light. Each solution for injection was prepared daily after dilution in the vehicle (0.9% NaCl) containing 5% monkey serum (v/v), and was stored at room temperature and protected from light, according to the storage conditions of the test substance.
Animals. One male and one female purpose bred Cynomologus monkeys Macaca fascicularis were supplied by Centre de Recherches Primatologiques, Port Louis, Mauritius. […] The animals were individually housed in stainless steel cages and a metallic tray was placed under each cage in order to collect urine. The animals were fed daily with approximately 200 grams each of U.A.R. 107 C pelleted diet (batch Nos. 61106, 61207 and 70317, U.A.R., Villemoisson-sur-Orge, France), distributed about 2 hours after treatment with Tetrac. No contaminants were known to have been present in the diet, drinking water or bedding material at levels which may be expected to have interfered with or prejudiced the outcome of the study.
Weeks 1 to 3 and weeks 7 to 9: the animals received the test substance TETRAC provided either by Rhone-Poulenc or by Henning Laboratories over a three-week period.
Weeks 4 to 6 and weeks 10 to 12: a washout period of three weeks was observed.
Administration of Tetrac. Tetrac was administered via intramuscular injection into the thigh muscle once a day, at approximately the same time each day, several days a week over a three week period. The quantity of tetrac administered to each animal was adjusted according to the most recently recorded body weight. A constant dosage-volume of 0.5 ml/kg was used.
Morbidity and mortality. The animals were checked at least twice a day, for mortality and signs of morbidity.
Body weight. Body weight was recorded for each animal once before the beginning of the treatment period, on the first day of the treatment period, and at least once a week until the end of the study.
Food consumption. Food consumption was estimated for each animal by calculating the difference between the quantity given and that remaining the next morning. This was estimated daily during the week before treatment and throughout the study. Food consumption was expressed as a percentage of the quantity given. Whenever fasting was required, the food was removed at the end of the day and the estimation of consumption was made at that time, food being made available for approximately five hours on that day.

O=C(O)Cc1cc(I)c(Oc2cc(I)c(O)c(I)c2)c(I)c1 [Tetrac, 3,3′,5,5′-tetraiodothyroacetic acid]
concentration at 13 days ([1]; Tetrac infusion 1.5 nmol/day/100 g BW): 168 ± 16 nM
concentration at 13 days ([1]; Tetrac infusion 4.5 nmol/day/100 g BW): 332 ± 19 nM
concentration at 13 days ([1]; Tetrac infusion 13.5 nmol/day/100 g BW): 458 ± 27 nM
concentration at 13 days ([1]; Tetrac infusion 40.5 nmol/day/100 g BW): 406 ± 57 nM
α-MHC mRNA, adjusted mean (α-MHC mRNA): 5.3 arbitrary units
Clinical signs (Cynomologus monkeys; 75 μg/kg/day intramuscular, treatment or washout periods): No clinical signs were observed
Body weight gain (in words) (Cynomologus monkeys; Female, two treatment periods compared to washout periods): slightly higher body weight gain
Food consumption (in words) (Cynomologus monkeys; Male): unaffected
